Measured values as given in ChEMBL document CHEMBL4699519, “Natural and Semisynthetic Chalcones as Dual FLT3 and Microtubule Polymerization Inhibitors” (J Nat Prod, 2020).
Activity calls are given as the source filed them. No cut-off for these calls is given here.

Key:
MV4-11 [1] = assay: Antiproliferative activity against human MV4-11 cells assessed as reduction in cell viability at 50 uM after 72 hrs by MTS assay relative to control; type: functional
K562 [2] = assay: Antiproliferative activity against human K562 cells assessed as reduction in cell viability at 50 uM after 72 hrs by MTS assay relative to control; type: functional
MV4-11 [3] = assay: Antiproliferative activity against human MV4-11 cells assessed as reduction in cell viability at 25 uM after 72 hrs by MTS assay relative to control; type: functional
K562 [4] = assay: Antiproliferative activity against human K562 cells assessed as reduction in cell viability at 25 uM after 72 hrs by MTS assay relative to control; type: functional
[5] = target: Receptor-type tyrosine-protein kinase FLT3 (Homo sapiens) (UniProt P36888); assay: Inhibition of FLT3 (unknown origin) at 100 uM in presence of ATP relative to control
THP-1 = assay: Antiproliferative activity against human THP-1 cells assessed as reduction in cell viability after 72 hrs by MTS assay; type: functional
MOLM-13 [6] = assay: Antiproliferative activity against human MOLM-13 cells assessed as reduction in cell viability after 72 hrs by MTS assay; type: functional
MV4-11 [7] = assay: Antiproliferative activity against human MV4-11 cells assessed as reduction in cell viability after 72 hrs by MTS assay; type: functional
[8] = test system: Receptor-type tyrosine-protein kinase FLT3 (Homo sapiens), P36888 [UNDEFINED MUTATION]; assay: Inhibition of FLT3 ITD mutant in human MV4-11 cells assessed as inhibition of ERK phosphorylation at 25 to 50 uM incubated for 2 hrs by immunoblotting analysis; type: cell-based; conditions: dose microM 25-50, time 2.0 hrs
MV4-11 [9] = assay: Induction of apoptosis in human MV4-11 cells assessed as increase in cleaved PARP level at 0.313 to 5 uM after 24 hrs by Western blot analysis; type: functional, cell-based; conditions: dose microM 0.313-5, time 24.0 hrs
MV4-11 [10] = assay: Induction of apoptosis in human MV4-11 cells at 0.31 to 2.5 uM after 24 to 48 hrs by Annexin V/prpidium iodide staining based flow cytometric analysis; type: functional, cell-based; conditions: dose microM 0.31-2.5, time hrs 24-48
[11] = target: T1, Receptor-type tyrosine-protein kinase FLT3 (Homo sapiens, UniProt P36888); assay: Inhibition of FLT3 (unknown origin) in presence of ATP
T1 sequence (P36888 whole entry): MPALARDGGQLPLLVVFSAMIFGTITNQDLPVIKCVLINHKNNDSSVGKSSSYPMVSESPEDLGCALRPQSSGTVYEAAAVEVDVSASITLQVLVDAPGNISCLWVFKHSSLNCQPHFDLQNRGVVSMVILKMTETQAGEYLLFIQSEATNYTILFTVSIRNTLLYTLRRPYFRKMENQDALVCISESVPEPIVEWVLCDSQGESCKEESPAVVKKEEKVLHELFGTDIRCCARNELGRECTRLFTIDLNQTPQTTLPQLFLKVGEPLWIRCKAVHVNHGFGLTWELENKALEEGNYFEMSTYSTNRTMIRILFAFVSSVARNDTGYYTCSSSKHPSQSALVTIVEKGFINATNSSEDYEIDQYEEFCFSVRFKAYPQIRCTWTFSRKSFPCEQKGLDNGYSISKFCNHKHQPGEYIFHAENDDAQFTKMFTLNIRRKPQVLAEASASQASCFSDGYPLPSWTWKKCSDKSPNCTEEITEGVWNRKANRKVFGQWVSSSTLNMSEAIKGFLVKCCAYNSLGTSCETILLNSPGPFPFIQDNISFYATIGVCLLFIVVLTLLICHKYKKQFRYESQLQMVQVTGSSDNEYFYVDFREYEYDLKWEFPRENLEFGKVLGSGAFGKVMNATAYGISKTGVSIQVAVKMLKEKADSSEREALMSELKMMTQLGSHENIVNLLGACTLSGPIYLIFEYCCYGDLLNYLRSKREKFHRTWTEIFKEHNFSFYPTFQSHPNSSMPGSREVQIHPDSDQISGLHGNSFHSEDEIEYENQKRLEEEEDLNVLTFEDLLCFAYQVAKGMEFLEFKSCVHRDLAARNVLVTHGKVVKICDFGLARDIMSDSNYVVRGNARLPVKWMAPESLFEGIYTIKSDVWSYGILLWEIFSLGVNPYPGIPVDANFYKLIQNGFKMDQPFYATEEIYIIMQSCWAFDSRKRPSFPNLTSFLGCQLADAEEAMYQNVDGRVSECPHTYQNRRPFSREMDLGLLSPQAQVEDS

Tubulin (Homo sapiens) [12] = target: T2, Tubulin (Homo sapiens) (UniProt P68371+Q9H4B7+P0DPH7+P68366+Q13509+Q71U36+P04350+Q3ZCM7+P07437+P68363+Q9BQE3+Q6PEY2+Q13885+Q9BVA1+Q9BUF5); assay: Inhibition of microtubule polymerization in human HCT-116 cells assessed as increase in histone H3 phosphorylation at S10 residue at 25 uM after 8 hrs by DOT blot analysis; type: cell-based
[13] = test system: Receptor-type tyrosine-protein kinase FLT3 (Homo sapiens), P36888 [UNDEFINED MUTATION]; assay: Inhibition of FLT3 ITD mutant in human MV4-11 cells assessed as inhibition of STAT5 phosphorylation at 1.56 to 50 uM incubated for 2 hrs by immunoblotting analysis; type: cell-based; conditions: dose microM 1.56-50, time 2.0 hrs
[14] = test system: Receptor-type tyrosine-protein kinase FLT3 (Homo sapiens), P36888 [UNDEFINED MUTATION]; assay: Inhibition of FLT3 ITD mutant in human MV4-11 cells assessed as inhibition of ERK phosphorylation at 1.56 to 50 uM incubated for 2 hrs by immunoblotting analysis; type: cell-based; conditions: dose microM 1.56-50, time 2.0 hrs
MV4-11 [15] = assay: Induction of apoptosis in human MV4-11 cells assessed as increase in cleaved caspase-3 level at 0.313 to 5 uM after 24 hrs by Western blot analysis; type: functional, cell-based; conditions: dose microM 0.313-5, time 24.0 hrs
MOLM-13 [16] = assay: Antiproliferative activity against human MOLM-13 cells harboring D835Y mutant assessed as reduction in cell viability after 72 hrs by MTS assay; type: functional
[17] = Selectivity ratio of GI50 for antiproliferative activity against human THP-1 cells to GI50 antiproliferative activity against human MV4-11 cells; type: functional
Tubulin (Homo sapiens) [18] = target: T2, Tubulin (Homo sapiens); assay: Inhibition of tubulin polymerization (unknown origin) measured every 30 sec for 1 hrs in presence of GTP by turbidimetric analysis; type: protein-complex assay; conditions: dose microM 5-25, time 1.0 hrs
[19] = Resistant index, ratio of GI50 for antiproliferative activity against human MOLM-13 cells harboring D835Y mutant to antiproliferative activity against human MOLM-13 cells; type: functional
Tubulin (Homo sapiens) [20] = target: T2, Tubulin (Homo sapiens); assay: Inhibition of microtubule polymerization in human MV4-11 cells assessed as increase in histone H3 phosphorylation at S10 residue at 0.78 uM after 8 hrs by Western blot analysis; type: cell-based
Tubulin (Homo sapiens) [21] = target: T2, Tubulin (Homo sapiens); assay: Inhibition of microtubule polymerization in human HCT-116 cells assessed as increase in histone H3 phosphorylation at S10 residue at 0.78 uM after 8 hrs by Western blot analysis; type: cell-based
Tubulin (Homo sapiens) [22] = target: T2, Tubulin (Homo sapiens); assay: Inhibition of microtubule repolymerization in human A549 cells at 5 uM preincubated for 30 mins followed by 10 min incubation at ice cold methanol by DAPI staining based confocal microscopic method relative to control; type: cell-based; conditions: time 40.0 min
Tubulin (Homo sapiens) [23] = target: T2, Tubulin (Homo sapiens); assay: Displacement of colchicine from tubulin (unknown origin) at 50 uM after 1 hr by fluorescence assay relative to control; type: protein-complex assay
[24] = Selectivity ratio of GI50 for antiproliferative activity against human THP-1 cells to GI50 antiproliferative activity against human MOLM-13 cells; type: functional
Tubulin (Homo sapiens) [25] = target: T2, Tubulin (Homo sapiens); assay: Displacement of colchicine in tubulin (unknown origin) at 12.5 uM after 1 hr by fluorescence assay relative to control; type: protein-complex assay
Tubulin (Homo sapiens) [26] = target: T2, Tubulin (Homo sapiens); assay: Inhibition of microtubule polymerization in human MV4-11 cells assessed as increase in histone H3 phosphorylation at S10 residue at 0.35 to 2.5 uM after 24 hrs by propidium iodide staining based flow cytometric analysis; type: cell-based; conditions: dose microM 0.35-2.5, time 24.0 hrs
Tubulin (Homo sapiens) [27] = target: T2, Tubulin (Homo sapiens); assay: Displacement of colchicine from tubulin (unknown origin) at 25 uM after 1 hr by fluorescence assay relative to control; type: protein-complex assay
[28] = test system: Receptor-type tyrosine-protein kinase FLT3 (Homo sapiens), P36888 [UNDEFINED MUTATION]; assay: Inhibition of FLT3 ITD mutant in human MV4-11 cells assessed as inhibition of STAT5 phosphorylation at 25 to 50 uM incubated for 2 hrs by immunoblotting analysis; type: cell-based; conditions: dose microM 25-50, time 2.0 hrs

## O=C(/C=C/c1ccc(OCc2ccccc2)cc1)c1ccccc1
MV4-11 [1]
  Activity: inactive
K562 [2]
  Activity: inactive
MV4-11 [3]
  Activity: inactive
K562 [4]
  Activity: inactive

## O=C(/C=C/c1ccccc1)c1ccccc1O [2'-HYDROXYCHALCONE]
[5]
  inhibition: 39.5%
MV4-11 [1]
  Activity: Active
K562 [2]
  Activity: Active
THP-1
  GI50: > 10 µM
MV4-11 [3]
  Activity: Active
K562 [4]
  Activity: Active
MOLM-13 [6]
  GI50: > 10 µM
MV4-11 [7]
  GI50: > 10 µM
[8]
  inhibition: Active

## C=CCOc1cc(OC)ccc1C(=O)/C=C/c1ccc(OC)cc1
MV4-11 [9]
  Activity: Active
MV4-11 [10]
  Activity: Active
[11]
  IC50: 5.7 µM
Tubulin (Homo sapiens) [12]
  inhibition: Active
MV4-11 [1]
  Activity: >95%
[13]
  inhibition: Active
[14]
  inhibition: Active
MV4-11 [15]
  Activity: Active
K562 [2]
  Activity: >95%
THP-1
  GI50: 5.4 µM
MOLM-13 [16]
  GI50: 0.22 µM
MV4-11 [3]
  Activity: >95%
[17]
  RatioGI50: >2
Tubulin (Homo sapiens) [18]
  inhibition: Active
K562 [4]
  Activity: >95%
[19]
  RatioGI50: 1
Tubulin (Homo sapiens) [20]
  inhibition: Active
Tubulin (Homo sapiens) [21]
  inhibition: Active
Tubulin (Homo sapiens) [22]
  inhibition: 100%
Tubulin (Homo sapiens) [23]
  inhibition: 87%
MOLM-13 [6]
  GI50: 0.2 µM
MV4-11 [7]
  GI50: 0.24 µM
[24]
  RatioGI50: >2
Tubulin (Homo sapiens) [25]
  inhibition: 75%
Tubulin (Homo sapiens) [26]
  inhibition: Active
Tubulin (Homo sapiens) [27]
  inhibition: 80%

## COC(=O)Nc1nc2cc(C(=O)c3cccs3)ccc2[nH]1
Tubulin (Homo sapiens) [23]
  inhibition: 93.5%

## COc1ccc(/C=C/C(=O)c2ccc(OCc3ccccc3)cc2)c(OC)c1OC
MV4-11 [1]
  Activity: inactive
K562 [2]
  Activity: inactive
MV4-11 [3]
  Activity: inactive
K562 [4]
  Activity: inactive

## O=C(/C=C/c1ccc(Cl)cc1)c1ccc(OCc2ccccc2)cc1
MV4-11 [1]
  Activity: inactive
K562 [2]
  Activity: inactive
MV4-11 [3]
  Activity: inactive
K562 [4]
  Activity: inactive

## COc1cccc(/C=C/C(=O)c2ccc(OCc3ccccc3)cc2)c1
MV4-11 [1]
  Activity: inactive
K562 [2]
  Activity: inactive
MV4-11 [3]
  Activity: inactive
K562 [4]
  Activity: inactive

## COc1ccc(/C=C/C(=O)c2ccc3c(c2O)C=CC(C)(C)O3)cc1
MV4-11 [1]
  Activity: inactive
K562 [2]
  Activity: inactive
MV4-11 [3]
  Activity: inactive
K562 [4]
  Activity: inactive

## O=C(/C=C/c1ccccc1Cl)c1ccc(OCc2ccccc2)cc1
MV4-11 [1]
  Activity: inactive
K562 [2]
  Activity: inactive
MV4-11 [3]
  Activity: inactive
K562 [4]
  Activity: inactive

## COc1cc2c(N3CCN(C(=O)Nc4ccc(OC(C)C)cc4)CC3)ncnc2cc1OCCCN1CCCCC1 [TANDUTINIB]
MOLM-13 [16]
  GI50: 1.9 µM
[19]
  RatioGI50: 35.8
MOLM-13 [6]
  GI50: 0.052 µM

## O=C(/C=C/c1ccccc1)c1ccc(OCc2ccccc2)cc1
MV4-11 [1]
  Activity: inactive
K562 [2]
  Activity: inactive
MV4-11 [3]
  Activity: inactive
K562 [4]
  Activity: inactive

## O=C(/C=C/c1ccc(F)cc1)c1ccc(OCc2ccccc2)cc1
MV4-11 [1]
  Activity: inactive
K562 [2]
  Activity: inactive
MV4-11 [3]
  Activity: inactive
K562 [4]
  Activity: inactive

## COc1ccc(/C=C/C(=O)c2ccc(OC)cc2O)cc1
MV4-11 [1]
  Activity: Active
K562 [2]
  Activity: Active
THP-1
  GI50: > 100 µM
MV4-11 [3]
  Activity: Active
[28]
  inhibition: Active
K562 [4]
  Activity: Active
MOLM-13 [6]
  GI50: > 10 µM
MV4-11 [7]
  GI50: > 10 µM

## COc1ccc(C(=O)/C=C/c2ccc(OC)c(OC)c2)c(O)c1
[11]
  IC50: 13.8 µM
MV4-11 [1]
  Activity: Active
K562 [2]
  Activity: Active
THP-1
  GI50: > 100 µM
MV4-11 [3]
  Activity: Active
[28]
  inhibition: Active
K562 [4]
  Activity: Active
MOLM-13 [6]
  GI50: 10 µM
MV4-11 [7]
  GI50: > 10 µM
[8]
  inhibition: Active
